Measurements from PMC3722118, “Hellebrin and its aglycone form hellebrigenin display similar in vitro growth inhibitory effects in cancer cells and binding profiles to the alpha subunits of the Na^+/K^+-ATPase” (Molecular Cancer, 2013).

Columns and labels:
[1] = tested on: human cancer cells (A549, U373, Hs683, T98G, MCF-7, SKMEL-28, PC-3, HT-29); assay: MTT growth inhibition, mean over the eight human cancer cell lines; assay type: cell-based; conditions: 72 h; mean over eight human cancer cell lines, three days of culture; read-out: IC50 (nM) Mean ± SEM
From the text: (§1) The histological types and origins of the eight human cancer cell lines that were used for the MTT colorimetric assay are detailed in the legend of Table 1. Two mouse cancer cell lines were also used, the CT26.WT colon cancer cell line (ATCC code CRL-2638) and the B16F10 melanoma cell line (ATCC code CRL-6475). Both cell lines were obtained from the American Type Culture Collection (ATCC, Manassas, VA). A control cell line (human NHDF fibroblasts) was obtained from PromoCell (code c-12300; Heidelberg, Germany). The cell lines detailed in Figure 2A are a generous gift from the National Cancer Institute (NCI, Bethesda, USA) to Steven Karlish’s lab.
(§2) The cancer cells were cultured in RPMI (Lonza, Verviers, Belgium) medium supplemented with 10% heat-inactivated fetal calf serum (Lonza). All culture media were supplemented with 4 mM glutamine, 100 μg/mL gentamicin, 200 U/mL penicillin and 200 μg/mL streptomycin (Lonza). The NHDF fibroblasts were cultured in Lonza medium cc3132 KT FGM-2 BulletKit.
(§3) The overall growth level of the human cancer cell lines was determined using a colorimetric MTT (3-(4,5-dimethylthiazol-2yl)-2,5-diphenyltetrazolium bromide, Sigma, Belgium) assay as detailed previously. Briefly, this test measures the number of metabolically active (thus living) cells that are able to transform the yellow MTT into the blue formazan dye via a mitochondrial reduction involving succinate dehydrogenase. The amount of formazan obtained at the end of the experiment (measured by spectrophotometry) is directly proportional to the number of living cells. The determination of the optical density in the control compared to the treated cells therefore enables quantitative measurements of the effects of compounds on the growth of normal as well as cancer cells in vitro.
(§4) Each experimental condition was performed in six replicates.

Rodent NaK = molecular target: Rodent NaK; design: method as in PMID 17706876; conditions: read-out: Ki for inhibition of activity, rodent NaK; cited from earlier work
[2] = tested on: PC-3 prostate cancer cells; assay: MTT colorimetric in vitro growth inhibition assay; assay type: cell-based, human; conditions: Homo sapiens, 72 h; three days of culture; * three independent experiments, ** one experiment, six replicates; read-out: IC50 (nM) PC-3
From the text: as §1, §2, §3, §4

U373 glioma cells = assay: MTT colorimetric in vitro growth inhibition assay; assay type: cell-based, human; conditions: Homo sapiens, U373 MG, 72 h; three days of culture; * three independent experiments, ** one experiment, six replicates; read-out: IC50 (nM) U373
From the text: as §1, §2, §3, §4

SKMEL-28 melanoma cells = assay: MTT colorimetric in vitro growth inhibition assay; assay type: cell-based, human; conditions: Homo sapiens, SK-MEL-28, 72 h; three days of culture; * three independent experiments, ** one experiment, six replicates; read-out: IC50 (nM) SKMEL-28
From the text: as §1, §2, §3, §4

T98G glioma cells = assay: MTT colorimetric in vitro growth inhibition assay; assay type: cell-based, human; conditions: Homo sapiens, T98G, 72 h; three days of culture; * three independent experiments, ** one experiment, six replicates; read-out: IC50 (nM) T98G
From the text: as §1, §2, §3, §4

A549 NSCLC cells = assay: MTT colorimetric in vitro growth inhibition assay; assay type: cell-based, human; conditions: Homo sapiens, A549, 72 h; three days of culture; * three independent experiments, ** one experiment, six replicates; read-out: IC50 (nM) A549
From the text: as §1, §2, §3, §4

[3] = tested on: MCF-7 breast cancer cells; assay: MTT colorimetric in vitro growth inhibition assay; assay type: cell-based, human; conditions: Homo sapiens, MCF7, 72 h; three days of culture; * three independent experiments, ** one experiment, six replicates; read-out: IC50 (nM) MCF-7
From the text: as §1, §2, §3, §4

Hs683 glioma cells = assay: MTT colorimetric in vitro growth inhibition assay; assay type: cell-based, human; conditions: Homo sapiens, Hs 683, 72 h; three days of culture; * three independent experiments, ** one experiment, six replicates; read-out: IC50 (nM) Hs683
From the text: as §1, §2, §3, §4

HT-29 colon cancer cells [4] = assay: MTT colorimetric in vitro growth inhibition assay; assay type: cell-based, human; conditions: Homo sapiens, HT-29, 72 h; three days of culture; * three independent experiments, ** one experiment, six replicates; read-out: IC50 (nM) HT-29
From the text: as §1, §2, §3, §4

human NaK = molecular target: human NaK; design: method as in PMID 17706876; conditions: read-out: Ki for inhibition of activity, human NaK; cited from earlier work
HT-29 colon cancer cells [5] = assay: O2 consumption rate (MitoXpress assay); assay type: cell-based, human; conditions: compounds at their IC50 (MTT), 24 h
Experimental: For enzymatic determination of lactate production, confluent tumor cells were incubated with 10 mM glucose for 24 hours. Culture medium was then filtered through centrifugation columns with a 10 KDa cutoff, and L-lactate concentrations were determined on an ISCUSflex analyzer (CMA Microdialysis AB, Solna, Sweden). O2 consumption was determined using the MitoXpress assay according to the manufacturer’s instructions (LuxCell Biosciences, Cork, Ireland). Briefly, after adding the oxygen probe to tumor cells cultured for 24 hours in 96-well microplates with or without the tested compounds, the wells were sealed with mineral oil, and respiration was evaluated using time-resolved fluorescent plate readers. Under these conditions, O2 depletion was translated into an increase in probe phosphorescence signal, and the slope of this signal was used to derive the O2 consumption rate.
Figure 6 Metabolic profiling of human HT29 colon cancer cells treated with cardiotonic steroids. A: Extracellular lactate concentrations and B: O2 consumption rates in HT29 cancer cells treated with the indicated compounds at their IC50in vitro growth inhibitory concentrations (see Table 1). The data (mean ± SEM from triplicates) are expressed in mM lactate accumulated in the extracellular medium after 24 hours and arbitrary units derived from time-resolved fluorescent signal.min^-1.

C[C@@H]1O[C@@H](O[C@H]2C[C@@H](O)[C@]3(CO)[C@H]4[C@H](O)C[C@]5(C)[C@@H](C6=CC(=O)OC6)CC[C@]5(O)[C@@H]4CC[C@]3(O)C2)[C@H](O)[C@H](O)[C@H]1O [Ouabain]
IC50 [1]: 70 ± 8 nM
Ki (Rodent NaK): 100000 nM
IC50 [2]: 63 ± 10 nM
IC50 (U373 glioma cells): 78 ± 1 nM
IC50 (SKMEL-28 melanoma cells): 83 ± 13 nM
IC50 (T98G glioma cells): 80 ± 3 nM
IC50 (A549 NSCLC cells): 37 ± 2 nM
IC50 [3]: 100 ± 17 nM
IC50 (Hs683 glioma cells): 34 ± 3 nM
IC50 (HT-29 colon cancer cells [4]): 84 ± 8 nM
Ki (human NaK): 100 nM
O2 consumption rate (cell respiration) (HT-29 colon cancer cells [5]): significantly reduced
